How the values were obtained:
[1] = biological target: T1, baculovirus-expressed ALK (Homo sapiens, UniProt Q9UM73); assay: ALK Kinase Assay (ELISA-type, time-resolved fluorescence); assay type: biochemical; conditions: 1 μM ATP (Km level), 30 ng/ml ALK, 37° C., 15 minutes; read-out: ALK Activity (ALK kinase inhibition, IC50 class)
T1 construct: host or cells: baculovirus expression system
Outline: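 Wells were coated with phospholipase C-γ at 10 μg/mL in Tris-buffered saline. Adding 30 ng/ml enzyme started the reaction, which ran at 37° C for 15 minutes before Eu-N1 PT66 antibody detection. Percent inhibition versus log10 concentration gave IC50 by variable-slope fit.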

[2] = biological target: T2, c-Met (cytoplasmic domain) (Homo sapiens, UniProt P08581); assay: c-Met Kinase Assay (same methods as for ALK, with modifications); assay type: biochemical; conditions: 1 μM ATP (Km level), 10 ng/mL c-Met; read-out: cMet Activity (c-Met kinase inhibition, IC50 class)
T2 construct: 10 ng/mL c-Met (cytoplasmic domain, Invitrogen Corporation #PV3143); purchased Invitrogen Corporation PV3143
T2 sequence (P08581 956-1390 limits assumed): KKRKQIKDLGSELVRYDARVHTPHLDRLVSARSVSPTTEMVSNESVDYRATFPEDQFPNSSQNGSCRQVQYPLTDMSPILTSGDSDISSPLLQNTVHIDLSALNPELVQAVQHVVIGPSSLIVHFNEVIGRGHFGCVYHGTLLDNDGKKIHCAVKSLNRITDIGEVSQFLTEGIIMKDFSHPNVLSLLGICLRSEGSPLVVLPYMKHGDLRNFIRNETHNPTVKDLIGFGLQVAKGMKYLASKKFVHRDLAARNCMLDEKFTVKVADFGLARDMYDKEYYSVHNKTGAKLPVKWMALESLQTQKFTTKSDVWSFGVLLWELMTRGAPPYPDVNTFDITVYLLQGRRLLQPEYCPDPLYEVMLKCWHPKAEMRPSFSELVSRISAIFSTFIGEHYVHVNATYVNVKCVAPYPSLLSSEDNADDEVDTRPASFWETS
Outline: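 IC50 values were fitted by variable-slope sigmoidal regression of percent inhibition against log compound concentration. Phosphorylation was read with Eu-N1 PT66 antibody after a 15 min, 37 °C reaction. The reaction was initiated with 10 ng/mL c-Met cytoplasmic domain on wells coated with 10 μg/mL PLC-γ in TBS.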

T1 sequence (Q9UM73 19-1620): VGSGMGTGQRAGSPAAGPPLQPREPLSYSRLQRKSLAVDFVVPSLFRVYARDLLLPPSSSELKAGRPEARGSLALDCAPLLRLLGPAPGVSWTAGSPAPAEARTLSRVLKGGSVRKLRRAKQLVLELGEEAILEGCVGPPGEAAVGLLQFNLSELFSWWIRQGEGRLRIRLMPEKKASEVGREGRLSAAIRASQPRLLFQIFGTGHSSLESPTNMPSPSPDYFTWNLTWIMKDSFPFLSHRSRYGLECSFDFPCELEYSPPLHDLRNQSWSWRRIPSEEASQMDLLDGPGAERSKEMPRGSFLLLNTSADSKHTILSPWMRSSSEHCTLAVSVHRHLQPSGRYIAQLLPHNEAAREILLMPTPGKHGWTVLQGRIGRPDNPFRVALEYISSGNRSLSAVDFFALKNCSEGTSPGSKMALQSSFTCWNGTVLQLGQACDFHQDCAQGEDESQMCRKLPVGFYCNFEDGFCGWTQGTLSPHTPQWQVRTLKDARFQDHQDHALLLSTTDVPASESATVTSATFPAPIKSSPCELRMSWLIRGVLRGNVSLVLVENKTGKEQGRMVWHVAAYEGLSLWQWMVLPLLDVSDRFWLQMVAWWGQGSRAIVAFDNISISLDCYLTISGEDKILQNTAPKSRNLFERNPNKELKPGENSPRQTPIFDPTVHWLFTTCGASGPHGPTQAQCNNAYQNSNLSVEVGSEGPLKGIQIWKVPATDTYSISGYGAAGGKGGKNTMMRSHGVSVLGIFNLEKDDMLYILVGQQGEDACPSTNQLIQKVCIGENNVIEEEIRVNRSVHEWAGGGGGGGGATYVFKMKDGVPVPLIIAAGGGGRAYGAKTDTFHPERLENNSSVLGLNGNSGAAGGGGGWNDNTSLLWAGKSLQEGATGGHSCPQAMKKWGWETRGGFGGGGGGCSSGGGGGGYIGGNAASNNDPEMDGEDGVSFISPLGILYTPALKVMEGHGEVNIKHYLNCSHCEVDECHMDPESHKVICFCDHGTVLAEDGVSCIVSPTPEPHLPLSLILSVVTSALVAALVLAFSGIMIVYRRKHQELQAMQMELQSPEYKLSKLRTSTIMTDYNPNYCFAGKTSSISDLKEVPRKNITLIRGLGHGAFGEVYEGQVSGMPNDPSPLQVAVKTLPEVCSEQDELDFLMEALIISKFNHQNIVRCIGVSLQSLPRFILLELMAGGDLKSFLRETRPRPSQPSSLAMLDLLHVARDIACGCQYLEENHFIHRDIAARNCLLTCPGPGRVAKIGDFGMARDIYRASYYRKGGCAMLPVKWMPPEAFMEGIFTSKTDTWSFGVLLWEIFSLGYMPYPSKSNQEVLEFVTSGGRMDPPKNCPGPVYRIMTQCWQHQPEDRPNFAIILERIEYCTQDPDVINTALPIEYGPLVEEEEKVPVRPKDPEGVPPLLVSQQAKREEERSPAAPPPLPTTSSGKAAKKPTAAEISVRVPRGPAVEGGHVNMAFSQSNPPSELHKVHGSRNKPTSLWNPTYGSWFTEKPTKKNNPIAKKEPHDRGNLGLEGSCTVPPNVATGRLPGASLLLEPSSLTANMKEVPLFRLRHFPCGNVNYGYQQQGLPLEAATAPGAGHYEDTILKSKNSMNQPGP

With `CNC(=O)c1ccc(Nc2nc(Nc3cc4c(cc3OC)CCN(CC(=O)N(C)C)CC4)ncc2Cl)c(OC)c1` [Example 1176, 4-[5-Chloro-2-(3-dimethylcarbamoylmethyl-8-methoxy-2,3,4,5-tetrahydro-1H-benzo[d]azepin-7-ylamino)-pyrimidin-4-ylamino]-3-methoxy-N-methyl-benzamide] as the compound, how does the IC50 [1] read?
The IC50 was less than 100 nM.

What about the IC50 [2] of the same compound?
Its IC50 is greater than 10000 nM.

With `CNC(=O)c1ccc(Nc2nc(Nc3cc4c(cc3OC)CCN(C(COC)COC)CC4)ncc2Cl)c(OC)c1` [Example 1177, 4-{5-Chloro-2-[8-methoxy-3-(2-methoxy-1-methoxymethyl-ethyl)-2,3,4,5-tetrahydro-1H-benzo[d]azepin-7-ylamino]-pyrimidin-4-ylamino}-3-methoxy-N-methyl-benzamide] as the compound, how does the IC50 [1] read?
The IC50 was less than 100 nM.

What about the IC50 [2] of the same compound?
The IC50 was greater than 10000 nM.

Which results are given for `COc1cc2c(cc1Nc1ncc(Cl)c(Nc3ccccc3S(=O)(=O)N3CCCC3)n1)CCN(CCS(C)(=O)=O)CC2` [Example 1178, 5-Chloro-N*2*-[3-(2-methanesulfonyl-ethyl)-8-methoxy-2,3,4,5-tetrahydro-1H-benzo[d]azepin-7-yl]-N*4*-[2-(pyrrolidine-1-sulfonyl)-phenyl]-pyrimidine-2,4-diamine]?
IC50 [1]: < 100 nM; IC50 [2]: 100 to 1000 nM

Which results are given for `COc1cc2c(cc1Nc1ncc(Cl)c(N[C@H]3[C@@H](C(N)=O)[C@@H]4C=C[C@H]3C4)n1)CCN(Cc1ncco1)CC2` [Example 1179, (1S,2S,3R,4R)-3-[5-Chloro-2-(8-methoxy-3-oxazol-2-ylmethyl-2,3,4,5-tetrahydro-1H-benzo[d]azepin-7-ylamino)-pyrimidin-4-ylamino]-bicyclo[2.2.1]hept-5-ene-2-carboxylic acid amide]?
IC50 [1]: < 100 nM; IC50 [2]: > 10000 nM

What does the source list for `COc1cc2c(cc1Nc1ncc(Cl)c(Nc3ccc(N4CCOCC4)cc3OC)n1)CCN(Cc1ncco1)CC2` [Example 1180, 5-Chloro-N*4*-(2-methoxy-4-morpholin-4-yl-phenyl)-N*2*-(8-methoxy-3-oxazol-2-ylmethyl-2,3,4,5-tetrahydro-1H-benzo[d]azepin-7-yl)-pyrimidine-2,4-diamine]?
IC50 [1]: < 100 nM; IC50 [2]: > 10000 nM

`COc1cc2c(cc1Nc1ncc(Cl)c(Nc3ccccc3S(=O)(=O)N3CCCC3)n1)CCN(CC(=O)N(C)C)CC2` [Example 1181, 2-(7-{5-Chloro-4-[2-(pyrrolidine-1-sulfonyl)-phenylamino]-pyrimidin-2-ylamino}-8-methoxy-1,2,4,5-tetrahydro-benzo[d]azepin-3-yl)-N,N-dimethyl-acetamide] was tested. Which IC50 [1] did it give?
Its IC50 is less than 100 nM.

And the IC50 [2]?
The IC50 was 1000 to 10000 nM.

Which results are given for `CNC(=O)c1ccc(Nc2nc(Nc3cc4c(cc3OC)CCN(Cc3ncco3)CC4)ncc2Cl)c(OC)c1` [Example 1182, 4-[5-Chloro-2-(8-methoxy-3-oxazol-2-ylmethyl-2,3,4,5-tetrahydro-1H-benzo[d]azepin-7-ylamino)-pyrimidin-4-ylamino]-3-methoxy-N-methyl-benzamide]?
IC50 [1]: < 100 nM; IC50 [2]: > 10000 nM

Which results are given for `COc1cc2c(cc1Nc1ncc(Cl)c(Nc3ccccc3S(=O)(=O)N(C)C)n1)CCN(CCCN1CCOCC1)C(=O)C2` [Example 1183, 2-{5-Chloro-2-[8-methoxy-3-(3-morpholin-4-yl-propyl)-2-oxo-2,3,4,5-tetrahydro-1H-benzo[d]azepin-7-ylamino]-pyrimidin-4-ylamino}-N,N-dimethyl-benzenesulfonamide]?
IC50 [1]: < 100 nM; IC50 [2]: > 10000 nM

For `COCCN(C)S(=O)(=O)c1ccccc1Nc1nc(Nc2cc3c(cc2OC)CCN(CC(=O)N(C)C)CC3)ncc1Cl` [Example 1184, 2-[7-(5-Chloro-4-{2-[(2-methoxy-ethyl)-methyl-sulfamoyl]-phenylamino}-pyrimidin-2-ylamino)-8-methoxy-1,2,4,5-tetrahydro-benzo[d]azepin-3-yl]-N,N-dimethyl-acetamide], which IC50 [1] is on record?
The IC50 was less than 100 nM.

And the IC50 [2]?
Its IC50 is greater than 10000 nM.

How did the IC50 [1] turn out when `CNC(=O)c1cc(N(C)C)ccc1Nc1nc(Nc2cc3c(cc2OC)CCN(CC(=O)N(C)C)CC3)ncc1Cl` [Example 1185, 2-[5-Chloro-2-(3-dimethylcarbamoylmethyl-8-methoxy-2,3,4,5-tetrahydro-1H-benzo[d]azepin-7-ylamino)-pyrimidin-4-ylamino]-5-dimethylamino-N-methyl-benzamide] was run?
Its IC50 is less than 100 nM.

What about the IC50 [2] of the same compound?
Its IC50 is greater than 10000 nM.

Which IC50 [1] does the source give for `COc1cc2c(cc1Nc1ncc(Cl)c(Nc3ccc[nH]c3=O)n1)CCN(CC(=O)N(C)C)CC2` [Example 1186, 2-{7-[5-Chloro-4-(2-oxo-1,2-dihydro-pyridin-3-ylamino)-pyrimidin-2-ylamino]-8-methoxy-1,2,4,5-tetrahydro-benzo[d]azepin-3-yl}-N,N-dimethyl-acetamide] here?
The IC50 was less than 100 nM.

What about the IC50 [2] of the same compound?
Its IC50 is greater than 10000 nM.

Which IC50 [1] does the source give for `COc1cc2c(cc1Nc1ncc(Cl)c(Nc3ccc(N(C)C)cc3S(=O)(=O)C(C)C)n1)CCN(CC(=O)N(C)C)CC2` [Example 1187, 2-(7-{5-Chloro-4-[4-dimethylamino-2-(propane-2-sulfonyl)-phenylamino]-pyrimidin-2-ylamino}-8-methoxy-1,2,4,5-tetrahydro-benzo[d]azepin-3-yl)-N,N-dimethyl-acetamide] here?
The IC50 was less than 100 nM.

What about the IC50 [2] of the same compound?
Its IC50 is greater than 10000 nM.

With `COc1cc2c(cc1Nc1ncc(Cl)c(Nc3ccccc3S(=O)(=O)N3CCC(O)C3)n1)CCN(CC(=O)N(C)C)CC2` (stereo not shown) [Example 1188, 2-(7-{5-Chloro-4-[2-(3-hydroxy-pyrrolidine-1-sulfonyl)-phenylamino]-pyrimidin-2-ylamino}-8-methoxy-1,2,4,5-tetrahydro-benzo[d]azepin-3-yl)-N,N-dimethyl-acetamide] as the compound, how does the IC50 [1] read?
Its IC50 is less than 100 nM.

What about the IC50 [2] of the same compound?
Its IC50 is 1000 to 10000 nM.

Which results are given for `COCCOc1ccc(Nc2nc(Nc3cc4c(cc3OC)CCN(CC(=O)N(C)C)CC4)ncc2Cl)c(S(=O)(=O)C(C)C)c1` [Example 1189, 2-(7-{5-Chloro-4-[4-(2-methoxy-ethoxy)-2-(propane-2-sulfonyl)-phenylamino]-pyrimidin-2-ylamino}-8-methoxy-1,2,4,5-tetrahydro-benzo[d]azepin-3-yl)-N,N-dimethyl-acetamide]?
IC50 [1]: < 100 nM; IC50 [2]: > 10000 nM

How did the IC50 [1] turn out when `COc1cc2c(cc1Nc1ncc(Cl)c(Nc3cccnc3OC)n1)CCN(CC(=O)N(C)C)CC2` [Example 1190, 2-{7-[5-Chloro-4-(2-methoxy-pyridin-3-ylamino)-pyrimidin-2-ylamino]-8-methoxy-1,2,4,5-tetrahydro-benzo[d]azepin-3-yl}-N,N-dimethyl-acetamide] was run?
Its IC50 is less than 100 nM.

What about the IC50 [2] of the same compound?
The IC50 was greater than 10000 nM.

With `COc1cc2c(cc1Nc1ncc(Cl)c(Nc3ccccc3S(=O)(=O)N3CCCC3)n1)CCN(Cc1ncco1)CC2` [Example 1191, 5-Chloro-N*2*-(8-methoxy-3-oxazol-2-ylmethyl-2,3,4,5-tetrahydro-1H-benzo[d]azepin-7-yl)-N*4*-[2-(pyrrolidine-1-sulfonyl)-phenyl]-pyrimidine-2,4-diamine] as the compound, how does the IC50 [1] read?
Its IC50 is less than 100 nM.

And the IC50 [2]?
Its IC50 is 1000 to 10000 nM.

Which IC50 [1] does the source give for `COc1cc2c(cc1Nc1ncc(Cl)c(Nc3ccccc3S(=O)(=O)N(C)C)n1)CCN(C(=O)CN1CCOCC1)CC2` [Example 1192, 2-{5-Chloro-2-[8-methoxy-3-(2-morpholin-4-yl-acetyl)-2,3,4,5-tetrahydro-1H-benzo[d]azepin-7-ylamino]-pyrimidin-4-ylamino}-N,N-dimethyl-benzenesulfonamide] here?
Its IC50 is less than 100 nM.

And the IC50 [2]?
Its IC50 is 1000 to 10000 nM.

What does the source list for `COc1cc2c(cc1Nc1ncc(Cl)c(Nc3ccccc3S(=O)(=O)N3CCC(O)C3)n1)CCNC(=O)C2` (stereo not shown) [Example 1193, 7-{5-Chloro-4-[2-(3-hydroxy-pyrrolidine-1-sulfonyl)-phenylamino]-pyrimidin-2-ylamino}-8-methoxy-1,3,4,5-tetrahydro-benzo[d]azepin-2-one]?
IC50 [1]: < 100 nM; IC50 [2]: 100 to 1000 nM

Which results are given for `COc1cc2c(cc1Nc1ncc(Cl)c(Nc3ccccc3S(=O)(=O)N(C)C)n1)CCNC(=O)C2` [Example 1194, 2-[5-Chloro-2-(8-methoxy-2-oxo-2,3,4,5-tetrahydro-1H-benzo[d]azepin-7-ylamino)-pyrimidin-4-ylamino]-N,N-dimethyl-benzenesulfonamide]?
IC50 [1]: < 100 nM; IC50 [2]: 1000 to 10000 nM

With `COc1cc2c(cc1Nc1ncc(Cl)c(Nc3ccccc3S(=O)(=O)N(C)C)n1)CCN(CCN1CCOCC1)C(=O)C2` [Example 1195, 2-{5-Chloro-2-[8-methoxy-3-(2-morpholin-4-yl-ethyl)-2-oxo-2,3,4,5-tetrahydro-1H-benzo[d]azepin-7-ylamino]-pyrimidin-4-ylamino}-N,N-dimethyl-benzenesulfonamide] as the compound, how does the IC50 [1] read?
Its IC50 is less than 100 nM.

What about the IC50 [2] of the same compound?
Its IC50 is 1000 to 10000 nM.

How did the IC50 [1] turn out when `CNC(=O)C1(Nc2nc(Nc3cc4c(cc3OC)CCN(CCOC)CC4)ncc2Cl)CC1` [Example 1196, 1-{5-Chloro-2-[8-methoxy-3-(2-methoxy-ethyl)-2,3,4,5-tetrahydro-1H-benzo[d]azepin-7-ylamino]-pyrimidin-4-ylamino}-cyclopropanecarboxylic acid methylamide] was run?
Its IC50 is 1000 to 10000 nM.

What about the IC50 [2] of the same compound?
Its IC50 is greater than 10000 nM.

With `COCCN1CCc2cc(Nc3ncc(Cl)c(NC4(C(=O)NCC#N)CC4)n3)c(OC)cc2CC1` [Example 1197, 1-{5-Chloro-2-[8-methoxy-3-(2-methoxy-ethyl)-2,3,4,5-tetrahydro-1H-benzo[d]azepin-7-ylamino]-pyrimidin-4-ylamino}-cyclopropanecarboxylic acid cyanomethyl-amide] as the compound, how does the IC50 [1] read?
The IC50 was 1000 to 10000 nM.

And the IC50 [2]?
Its IC50 is greater than 10000 nM.

`CNC(=O)C1(Nc2nc(Nc3cc4c(cc3OC)CCN(CC(=O)N(C)C)CC4)ncc2Cl)CC1` [Example 1198, 1-[5-Chloro-2-(3-dimethylcarbamoylmethyl-8-methoxy-2,3,4,5-tetrahydro-1H-benzo[d]azepin-7-ylamino)-pyrimidin-4-ylamino]-cyclopropanecarboxylic acid methylamide] was tested. Which IC50 [1] did it give?
The IC50 was less than 100 nM.

What about the IC50 [2] of the same compound?
Its IC50 is greater than 10000 nM.
